Reference: publication PMC9490236, “Accurate de novo design of membrane-traversing macrocycles” (Cell, 2022)
Where a SMILES comes first, the peptide text is derived from it. [ ]: non-standard residue; d: D form. NMeF = CN[C@@H](Cc1ccccc1)C(=O)O; dNMeF = CN[C@H](Cc1ccccc1)C(=O)O; NMeL = CN[C@@H](CC(C)C)C(=O)O; dNMeL = CN[C@H](CC(C)C)C(=O)O; dNMeV = CN[C@@H](C(=O)O)C(C)C; NMeM = CN[C@@H](CCSC)C(=O)O; NMeA = CN[C@@H](C)C(=O)O; Nle = CCCC[C@H](N)C(=O)O; dNMeA = CN[C@H](C)C(=O)O; Sar = CNCC(=O)O

Conditions: Caco-2

Compound | permeability in transwell assays
CC(C)C[C@@H]1NC(=O)[C@@H](CC(C)C)N(C)C(=O)[C@@H]2CCCN2C(=O)[C@H](CC(C)C)N(C)C(=O)[C@@H](C)NC(=O)[C@@H](CC(C)C)N(C)C(=O)[C@@H]2CCCN2C(=O)[C@@H](CC(C)C)N(C)C(=O)[C@H](CC(C)C)N(C)C(=O)[C@H](Cc2ccccc2)NC1=O [Design D10.21, *LEU *DLEU PRO *DLEU DALA *LEU PRO *DLEU LEU PHE] (cyclo(F[NMeL][dNMeL]P[dNMeL][dA][NMeL]P[dNMeL]L)) | not permeable
CC(C)C[C@@H]1NC(=O)[C@@H]2CCCN2C(=O)[C@H]2CCCN2C(=O)CN(C)C(=O)[C@@H](Cc2ccccc2)N(C)C(=O)[C@@H](CC(C)C)NC(=O)[C@@H](CC(C)C)N(C)C(=O)[C@@H]2CCCN2C(=O)[C@H](CC(C)C)N(C)C(=O)[C@H](CC(C)C)N(C)C1=O [Design D10.22, PRO LEU *LEU *LEU PRO *DLEU DLEU *DPHE *GLY DPRO] (cyclo(L[NMeL][NMeL]P[dNMeL][dL][dNMeF][Sar][dP]P)) | not permeable
CC(C)C[C@@H]1NC(=O)[C@@H]2CCCN2C(=O)[C@H]2CCCN2C(=O)[C@@H](CC(C)C)N(C)C(=O)[C@@H](Cc2ccccc2)N(C)C(=O)[C@@H](CC(C)C)NC(=O)[C@@H](CC(C)C)N(C)C(=O)[C@@H]2CCCN2C(=O)[C@H](CC(C)C)N(C)C(=O)[C@H](CC(C)C)N(C)C1=O [Design D10.23, PRO LEU *LEU *LEU PRO *DLEU DLEU *DPHE *DLEU DPRO] (cyclo(L[NMeL][NMeL]P[dNMeL][dL][dNMeF][dNMeL][dP]P)) | not permeable

Same assay, conditions: PAMPA

Compound | PAMPA_Papp_Avg | PAMPA_R1 | PAMPA_R3
CCCC[C@@H]1NC(=O)[C@@H](C)N(C)C(=O)[C@@H]2CCCN2C(=O)[C@@H](CC(C)C)NC(=O)[C@H](CC(C)C)N(C)C(=O)[C@H]2CCCN2C(=O)[C@H](CC(C)C)NC(=O)[C@@H](CC(C)C)NC(=O)[C@@H](C)NC1=O [Design D9.28, DLEU LEU DPRO *LEU DLEU PRO *DALA MET DALA] (cyclo(L[dP][NMeL][dL]P[dNMeA][Nle][dA][dL])) | 1.60E-06 | 1.84E-06 | 1.41E-06
CCCC[C@@H]1NC(=O)[C@H]2CCCN2C(=O)[C@@H]2CCCN2C(=O)[C@@H](C)NC(=O)[C@H]2CCCN2C(=O)[C@@H](C(C)C)NC(=O)[C@H](C(C)C)NC(=O)[C@@H](Cc2ccccc2)N(C)C(=O)[C@H](C)N(C)C1=O [Design D9.31, PRO DPRO MET *ALA *DPHE VAL DVAL DPRO DALA] (cyclo([NMeA][dNMeF]V[dV][dP][dA]P[dP][Nle])) | 6.86E-08 | 6.96E-08 | 5.29E-08
CC(C)C[C@@H]1NC(=O)[C@H](C(C)C)NC(=O)[C@@H](C)NC(=O)[C@H](C)NC(=O)[C@@H]2CCCN2C(=O)[C@H]2CCCN2C(=O)[C@@H](C)NC(=O)[C@H]2CCCN2C(=O)[C@@H]2CCCN2C1=O [Design D9.34, PRO ALA DALA VAL LEU PRO DPRO DALA DPRO] (cyclo(A[dA]VLP[dP][dA][dP]P)) | BQL | BQL | BQL
CC(C)[C@H]1NC(=O)[C@H](C)NC(=O)[C@@H]2CCCN2C(=O)[C@H]2CCCN2C(=O)[C@@H](C(C)C)NC(=O)[C@H]2CCCN2C(=O)[C@@H](C)NC(=O)[C@@H](Cc2ccccc2)N(C)C(=O)[C@H](Cc2ccccc2)NC1=O [Design D9.35, DPRO DVAL DPRO PRO ALA DVAL PHE *DPHE DALA] (cyclo(A[dV]F[dNMeF][dA][dP][dV][dP]P)) | BQL | BQL | BQL
CC(C)[C@@H]1NC(=O)[C@H](C)NC(=O)[C@H]2CCCN2C(=O)[C@@H](Cc2ccccc2)NC(=O)[C@H]2CCCN2C(=O)[C@@H]2CCCN2C(=O)[C@H](Cc2ccccc2)NC(=O)[C@H](C)NC(=O)[C@H]2CCCN2C1=O [Design D9.36, VAL DPRO ALA PHE PRO DPRO DPHE DPRO ALA] (cyclo(AFP[dP][dF][dP]AV[dP])) | BQL | BQL | BQL
CC[C@H](C)[C@@H]1NC(=O)[C@@H](CC(C)C)NC(=O)[C@H]2CCCN2C(=O)[C@@H]2CCCN2C(=O)[C@H](C)NC(=O)[C@H]2CCCN2C(=O)[C@@H]2CCCN2C(=O)[C@H](C)NC(=O)[C@@H](C(C)C)N(C)C1=O [Design D9.37, DPRO DLEU ILE *DVAL ALA PRO DPRO ALA PRO] (cyclo(AP[dP]AP[dP][dL]I[dNMeV])) | BQL | BQL | BQL
CC[C@@H](C)[C@H]1NC(=O)[C@H](CC(C)C)NC(=O)[C@@H](CC(C)C)NC(=O)[C@H](C(C)C)NC(=O)[C@@H]2CCCN2C(=O)[C@H](CC(C)C)N(C)C(=O)[C@@H](CC(C)C)NC(=O)[C@H](Cc2ccccc2)N(C)C(=O)[C@H]2CCCN2C1=O [Design D9.38, DPRO *PHE DLEU *LEU PRO VAL DLEU LEU DILE] (cyclo(L[dI][dP][NMeF][dL][NMeL]PV[dL])) | BQL | BQL | BQL
CCCC[C@@H]1NC(=O)[C@H]2CCCN2C(=O)[C@H](C(C)C)NC(=O)[C@@H](CC(C)C)N(C)C(=O)[C@H](Cc2ccccc2)NC(=O)[C@H](CC(C)C)NC(=O)[C@@H](CC(C)C)N(C)C(=O)[C@@H]2CCCN2C(=O)[C@@H](CC(C)C)NC1=O [Design D9.40, DPRO MET DLEU PRO *DLEU LEU PHE *DLEU VAL] (cyclo(F[dNMeL]V[dP][Nle][dL]P[dNMeL]L)) | 2.38E-07 | 4.18E-07 | 1.63E-07
CC(C)C[C@@H]1NC(=O)[C@H](C)NC(=O)[C@H](C)NC(=O)[C@H]2CCCN2C(=O)[C@H](Cc2ccccc2)N(C)C(=O)[C@H]2CCCN2C(=O)[C@H](CC(C)C)N(C)C(=O)[C@@H](CC(C)C)N(C)C(=O)[C@H](Cc2ccccc2)NC(=O)[C@@H](CC(C)C)NC1=O [Design D10.8, PHE *DLEU *LEU DPRO *PHE DPRO ALA ALA LEU DLEU] (cyclo(AAL[dL]F[dNMeL][NMeL][dP][NMeF][dP])) | BQL | BQL | BQL
CC[C@H](C)[C@@H]1NC(=O)[C@H](C(C)C)NC(=O)[C@@H](CC(C)C)N(C)C(=O)[C@H](Cc2ccccc2)N(C)C(=O)[C@H]2CCCN2C(=O)[C@H](C(C)C)NC(=O)[C@@H](C)NC(=O)[C@H](CC(C)C)N(C)C(=O)[C@H]2CCCN2C(=O)[C@@H](Cc2ccccc2)NC1=O [Design D10.9, DPRO *LEU DALA VAL DPRO *PHE *DLEU VAL ILE DPHE] (cyclo(I[dF][dP][NMeL][dA]V[dP][NMeF][dNMeL]V)) | BQL | BQL | BQL
CC[C@@H](C)[C@H]1NC(=O)[C@H](CC(C)C)NC(=O)[C@H](CC(C)C)N(C)C(=O)[C@H]2CCCN2C(=O)[C@@H](CC(C)C)NC(=O)[C@@H]2CCCN2C(=O)[C@H](CC(C)C)N(C)C(=O)[C@@H](Cc2ccccc2)N(C)C(=O)[C@H](CC(C)C)N(C)C(=O)[C@H](CC(C)C)N(C)C1=O [Design D10.12, *LEU LEU DILE *LEU *LEU *DPHE *LEU PRO DLEU DPRO] (cyclo(L[dI][NMeL][NMeL][dNMeF][NMeL]P[dL][dP][NMeL])) | BQL | BQL | BQL
CC(C)C[C@@H]1NC(=O)[C@H](CC(C)C)N(C)C(=O)[C@@H](Cc2ccccc2)N(C)C(=O)[C@H](Cc2ccccc2)NC(=O)[C@@H]2CCCN2C(=O)[C@@H](C)NC(=O)[C@@H]2CCCN2C(=O)[C@H](CC(C)C)N(C)C(=O)[C@H](CC(C)C)N(C)C(=O)[C@@H](C(C)C)NC1=O [Design D10.13, *LEU LEU DVAL *LEU *LEU PRO DALA PRO PHE *DPHE] (cyclo(F[dNMeF][NMeL]L[dV][NMeL][NMeL]P[dA]P)) | BQL | BQL | BQL
CC(C)C[C@@H]1C(=O)N[C@H](CC(C)C)C(=O)N(C)[C@H](Cc2ccccc2)C(=O)N(C)[C@@H](CC(C)C)C(=O)N(C)[C@H](C)C(=O)N2CCC[C@H]2C(=O)N(C)[C@H](Cc2ccccc2)C(=O)N[C@@H](C(C)C)C(=O)N[C@H](CC(C)C)C(=O)N2CCC[C@H]2C(=O)N1C [Design D10.14, *DPHE VAL DLEU PRO *DLEU DLEU *DPHE *LEU *DALA PRO] (cyclo([NMeL][dNMeA]P[dNMeF]V[dL]P[dNMeL][dL][dNMeF])) | BQL | BQL | BQL
CC(C)C[C@@H]1NC(=O)[C@@H](CC(C)C)N(C)C(=O)[C@@H]2CCCN2C(=O)[C@H](CC(C)C)N(C)C(=O)[C@@H](C)NC(=O)[C@@H](CC(C)C)N(C)C(=O)[C@@H]2CCCN2C(=O)[C@@H](CC(C)C)N(C)C(=O)[C@H](CC(C)C)N(C)C(=O)[C@H](Cc2ccccc2)NC1=O [Design D10.21, *LEU *DLEU PRO *DLEU DALA *LEU PRO *DLEU LEU PHE] (cyclo(F[NMeL][dNMeL]P[dNMeL][dA][NMeL]P[dNMeL]L)) | BQL | BQL | BQL
CC(C)C[C@@H]1NC(=O)[C@@H]2CCCN2C(=O)[C@H]2CCCN2C(=O)CN(C)C(=O)[C@@H](Cc2ccccc2)N(C)C(=O)[C@@H](CC(C)C)NC(=O)[C@@H](CC(C)C)N(C)C(=O)[C@@H]2CCCN2C(=O)[C@H](CC(C)C)N(C)C(=O)[C@H](CC(C)C)N(C)C1=O [Design D10.22, PRO LEU *LEU *LEU PRO *DLEU DLEU *DPHE *GLY DPRO] (cyclo(L[NMeL][NMeL]P[dNMeL][dL][dNMeF][Sar][dP]P)) | BQL | BQL | BQL
CC(C)C[C@@H]1NC(=O)[C@@H]2CCCN2C(=O)[C@H]2CCCN2C(=O)[C@@H](CC(C)C)N(C)C(=O)[C@@H](Cc2ccccc2)N(C)C(=O)[C@@H](CC(C)C)NC(=O)[C@@H](CC(C)C)N(C)C(=O)[C@@H]2CCCN2C(=O)[C@H](CC(C)C)N(C)C(=O)[C@H](CC(C)C)N(C)C1=O [Design D10.23, PRO LEU *LEU *LEU PRO *DLEU DLEU *DPHE *DLEU DPRO] (cyclo(L[NMeL][NMeL]P[dNMeL][dL][dNMeF][dNMeL][dP]P)) | BQL | BQL | BQL
CC(C)C[C@@H]1NC(=O)[C@@H]2CCCN2C(=O)[C@@H](Cc2ccccc2)N(C)C(=O)[C@H](CC(C)C)N(C)C(=O)[C@H](CC(C)C)N(C)C(=O)[C@@H](CC(C)C)N(C)C(=O)[C@H](C)NC(=O)[C@H](C(C)C)NC(=O)CNC(=O)[C@H](Cc2ccccc2)NC1=O [Design D10.24, PHE GLY VAL ALA *DLEU *LEU *LEU *DPHE PRO LEU] (cyclo(A[dNMeL][NMeL][NMeL][dNMeF]PLFGV)) | BQL | BQL | BQL
CC[C@H](C)[C@@H]1NC(=O)[C@H](CCSC)N(C)C(=O)[C@H]2CCCN2C(=O)[C@H](CC(C)C)NC(=O)[C@@H](Cc2ccccc2)NC(=O)[C@@H]2CCCN2C(=O)[C@H]2CCCN2C(=O)[C@H]([C@@H](C)CC)NC(=O)[C@@H](CC(C)C)N(C)C(=O)[C@H](CC(C)C)N(C)C1=O [Design D10.36, ILE *LEU *DLEU ILE DPRO PRO DPHE LEU DPRO *MET] (cyclo([dF]L[dP][NMeM]I[NMeL][dNMeL]I[dP]P)) | BQL | BQL | BQL
CC[C@@H](C)[C@H]1NC(=O)[C@H](C(C)C)NC(=O)[C@H](Cc2ccccc2)NC(=O)[C@H](C)NC(=O)[C@@H]2CCCN2C(=O)[C@H]2CCCN2C(=O)[C@H]2CCCN2C(=O)[C@H](CC(C)C)N(C)C(=O)[C@@H](C)N(C)C(=O)[C@H](C(C)C)NC1=O [Design D10.38, VAL *DALA *LEU DPRO DPRO PRO ALA PHE VAL DILE] (cyclo(AFV[dI]V[dNMeA][NMeL][dP][dP]P)) | BQL | BQL | BQL
